Results on 32 compounds are retold here after patent US20250017914A1, “6-AZA-QUINOLINE DERIVATIVES AND RELATED USES” (Black Diamond Therapeutics, Inc., priority 2021, published 2025).

Bounds are passed on as bounds.

In one assay the target is T1, BaF3 BRAF-KIAA1549 fusion cells (Homo sapiens, UniProt P15056).
T1 construct: The BRAF-KIAA1549 fusion mutant was subcloned into pMXs-IRES-Blasticidin (RTV-016, Cell Biolabs, San Diego, CA); No tag given; Q9HCM3 (UPF0606 protein KIAA1549)
T1 sequence (P15056 whole entry, change not shown, the tested form may be a part): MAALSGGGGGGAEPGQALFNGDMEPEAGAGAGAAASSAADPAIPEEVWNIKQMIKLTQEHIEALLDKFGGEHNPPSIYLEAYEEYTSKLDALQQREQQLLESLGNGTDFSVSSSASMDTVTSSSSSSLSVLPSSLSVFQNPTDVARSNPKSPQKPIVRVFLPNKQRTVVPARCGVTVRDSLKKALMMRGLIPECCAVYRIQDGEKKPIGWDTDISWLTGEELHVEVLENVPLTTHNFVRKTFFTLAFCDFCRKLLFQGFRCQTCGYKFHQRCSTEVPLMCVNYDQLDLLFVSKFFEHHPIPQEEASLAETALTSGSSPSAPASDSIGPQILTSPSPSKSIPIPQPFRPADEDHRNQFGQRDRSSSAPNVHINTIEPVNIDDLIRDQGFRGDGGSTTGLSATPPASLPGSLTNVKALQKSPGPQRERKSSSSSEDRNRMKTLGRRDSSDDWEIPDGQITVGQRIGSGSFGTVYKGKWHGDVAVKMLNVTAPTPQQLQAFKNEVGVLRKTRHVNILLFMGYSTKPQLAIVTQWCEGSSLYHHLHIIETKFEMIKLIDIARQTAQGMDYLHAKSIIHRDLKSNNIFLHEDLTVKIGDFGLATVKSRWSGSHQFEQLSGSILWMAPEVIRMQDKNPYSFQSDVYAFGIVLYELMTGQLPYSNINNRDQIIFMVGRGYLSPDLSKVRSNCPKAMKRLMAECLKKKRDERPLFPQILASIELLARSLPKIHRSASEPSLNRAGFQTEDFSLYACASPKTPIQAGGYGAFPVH
Description: BaF3 BRAF-KIAA1549 fusion cell proliferation assay (CellTiterGlo, 96 hours). Type of assay: cell-based. The note with it: Table A1. The essentials:
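BaF3 cells retrovirally transduced with BRAF-KIAA1549 fusion and blasticidin-selected were plated at 7×10^4 c/well in RPMI, 10% heat-inactivated FBS, 1% L-glutamine, and exposed to compound for 96 hours. Growth was read as ATP content by CellTiterGlo luminescence. IC50 was fitted by Levenberg-Marquardt, normalised to DMSO-treated cells.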
In general terms: ATP-based viability assays read luminescence as a measure of living cells.
By GI50 is commonly meant the concentration that inhibits growth by half. Read a low GI50 as more potent growth inhibition. In turn, `CNc1cc2ncc(-c3cc(NC(=O)c4cncc(C(F)(F)F)c4)ccc3C)cc2cn1` [Compound 3, N-(4-methyl-3-(7-(methylamino)-1,6-naphthyridin-3-yl)phenyl)-5-(trifluoromethyl)nicotinamide] registered a concentration for 50% growth inhibition (GI50) below 20 nM.
The same measure, in the same setting: with `CNc1cc2ncc(-c3cc(NC(=O)c4cc(C(F)F)c(F)cn4)cnc3C)cc2cn1` [Compound 66, 4-(Difluoromethyl)-5-fluoro-N-(6-methyl-5-(7-(methylamino)-1,6-naphthyridin-3-yl)pyridin-3-yl)picolinamide] the figure was 20 to 100 nM.
The compound `CNc1cc2ncc(-c3cc(NC(=O)c4ccnc(C5(F)CC5)c4)ccc3C)cc2cn1` [Compound 18, 2-(1-Fluorocyclopropyl)-N-(4-methyl-3-(7-(methylamino)-1,6-naphthyridin-3-yl)phenyl)isonicotinamide] returned a GI50 below 20 nM.
On to `CNc1cc2ncc(-c3cc(NC(=O)c4cc(C(C)(C)C#N)ccn4)cc(F)c3Cl)cc2cn1` [Compound 44, N-(4-chloro-3-fluoro-5-(7-(methylamino)-1,6-naphthyridin-3-yl)phenyl)-4-(2-cyanopropan-2-yl)picolinamide], for which the GI50 is 20 to 100 nM.
For the compound `CNc1cc2ncc(-c3cc(NC(=O)c4cc(C(F)(F)F)c(F)cn4)cnc3C)cc2cn1` [Compound 60, 5-Fluoro-N-(6-methyl-5-(7-(methylamino)-1,6-naphthyridin-3-yl)pyridin-3-yl)-4-(trifluoromethyl)picolinamide], the GI50 was below 20 nM.
On to `CNc1cc2ncc(-c3cc(NC(=N)c4cc(C(F)(F)F)ccn4)cnc3C)cc2cn1` [Compound 64, N-(6-Methyl-5-(7-(methylamino)-1,6-naphthyridin-3-yl)pyridin-3-yl)-4-(trifluoromethyl)picolinimidamide], for which the GI50 was at least 500 nM.
`CNc1cc2ncc(-c3cc(NC(=O)c4ccnc(C(C)(F)F)c4)ccc3C)cc2cn1` [Compound 9, 2-(1,1-difluoroethyl)-N-(4-methyl-3-(7-(methylamino)-1,6-naphthyridin-3-yl)phenyl)isonicotinamide] returned a GI50 below 20 nM.
The same measure, in the same setting: the result for `CNc1cc2ncc(-c3cc(NC(=O)c4cc(C5(C#N)CC5)ccn4)cnc3C)cc2cn1` [Compound 32, 4-(1-Cyanocyclopropyl)-N-(6-methyl-5-(7-(methylamino)-1,6-naphthyridin-3-yl)pyridin-3-yl)picolinamide] reads below 20 nM; that for `CNc1cc2nc(C#N)c(-c3cc(NC(=O)c4ccnc(C(F)(F)F)c4)ccc3C)cc2cn1` [Compound 79, N-(3-(2-cyano-7-(methylamino)-1,6-naphthyridin-3-yl)-4-methylphenyl)-2-(trifluoromethyl)isonicotinamide], below 20 nM.
Take `CNc1cc2ncc(-c3cc(NC(=O)c4cc(C(C)(C)C#N)ccn4)cc(Cl)c3C)cc2cn1` [Compound 48, N-(3-Chloro-4-methyl-5-(7-(methylamino)-1,6-naphthyridin-3-yl)phenyl)-4-(2-cyanopropan-2-yl)picolinamide]: the 50% growth inhibitory concentration (GI50) was at least 500 nM.
In turn, `CNc1cc2ncc(-c3cc(NC(=O)c4ccnc(C(F)(F)F)c4)cnc3C)cc2cn1` [Compound 27, N-(6-Methyl-5-(7-(methylamino)-1,6-naphthyridin-3-yl)pyridin-3-yl)-2-(trifluoromethyl)isonicotinamide] yielded a GI50 below 20 nM.
`CNc1cc2ncc(-c3cc(C(=O)Nc4cc(C(C)(C)C#N)ccn4)cnc3C)cc2cn1` [Compound 59, N-(4-(2-Cyanopropan-2-yl)pyridin-2-yl)-6-methyl-5-(7-(methylamino)-1,6-naphthyridin-3-yl)nicotinamide]: the 50% growth inhibitory concentration (GI50) was 20 to 100 nM.
Compound `CNc1cc2ncc(-c3cc(NC(=O)c4cc(C(C)(C)C#N)ccn4)cnn3)cc2cn1` [Compound 49, 4-(2-Cyanopropan-2-yl)-N-(6-(7-(methylamino)-1,6-naphthyridin-3-yl)pyridazin-4-yl)picolinamide] displayed a concentration for 50% growth inhibition (GI50) below 20 nM.
The compound `CNc1cc2ncc(-c3cc(NC(=O)c4cccc(N(C)C)c4)cnc3C)cc2cn1` [Compound 19, 3-(Dimethylamino)-N-(6-methyl-5-(7-(methylamino)-1,6-naphthyridin-3-yl)pyridin-3-yl)benzamide] came in with a GI50 below 20 nM.
Regarding `CNc1cc2ncc(-c3cc(NC(=O)c4cc(C5(C#N)CCC5)ccn4)cnc3C)cc2cn1` [Compound 31, 4-(1-Cyanocyclobutyl)-N-(6-methyl-5-(7-(methylamino)-1,6-naphthyridin-3-yl)pyridin-3-yl)picolinamide], the concentration for 50% growth inhibition (GI50) was 20 to 100 nM.
Consider `CNc1cc2ncc(-c3cc(NC(=O)C[C@@H]4C[C@H](C(F)(F)F)CCO4)ccc3C)cc2cn1` (single isomer, unassigned) [Compound 7, N-(4-Methyl-3-(7-(methylamino)-1,6-naphthyridin-3-yl)phenyl)-2-(4-(trifluoromethyl)tetrahydro-2H-pyran-2-yl)acetamide], for which the GI50 is below 20 nM.
`CNc1cc2ncc(-c3cc(NC(=O)c4ccnc(C5(F)CC5)c4)cnc3C)cc2cn1` [Compound 33, 2-(1-Fluorocyclopropyl)-N-(6-methyl-5-(7-(methylamino)-1,6-naphthyridin-3-yl)pyridin-3-yl)isonicotinamide]: the 50% growth inhibitory concentration (GI50) was below 20 nM.
With `CNc1cc2ncc(-c3cc(NC(=O)c4cc(C5(C#N)CC5)ccn4)ccc3C)cc2cn1` [Compound 16, 4-(1-Cyanocyclopropyl)-N-(4-methyl-3-(7-(methylamino)-1,6-naphthyridin-3-yl)phenyl)picolinamide], the GI50 was below 20 nM.
In the case of `CNc1cc2ncc(-c3cc(NC(=O)c4cc(C(F)(F)F)c(OCCO)cn4)ccc3C)cc2cn1` [Compound 71, 5-(2-hydroxyethoxy)-N-(4-methyl-3-(7-(methylamino)-1,6-naphthyridin-3-yl)phenyl)-4-(trifluoromethyl)picolinamide], the GI50 was 20 to 100 nM.

The assay is the same for the next values; noted with them: Table A2.
Compound `CNc1cc2ncc(-c3c(C)ncc(NC(=O)c4cc(C(C)(C)C#N)ccn4)c3Cl)cc2cn1` [Compound 197, N-[4-chloro-6-methyl-5-[7-(methylamino)-1,6-naphthyridin-3-yl]-3-pyridyl]-4-(1-cyano-1-methyl-ethyl)pyridine-2-carboxamide] registered a GI50 of at least 500 nM.
`CNc1cc2ncc(-c3cc(NC(=O)c4cnc5n4C[C@@H](C)CC5)cnc3C)cc2cn1` (single isomer, unassigned) [Compound 258]: the GI50 lay in the range of 20 to 100 nM.
`CNc1cc2ncc(-c3cc(NC(=O)c4n[nH]c5c4CN(C)CC5)cnc3C)cc2cn1` [Compound 244, 5-methyl-N-(6-methyl-5-(7-(methylamino)-1,6-naphthyridin-3-yl)pyridin-3-yl)-4,5,6,7-tetrahydro-1H-pyrazolo[4,3-c]pyridine-3-carboxamide]: the concentration for 50% growth inhibition (GI50) is at least 500 nM.
Consider `CNc1cc2ncc(-c3cc(NC(=O)c4cccc5c4CCCC5O)cnc3C)cc2cn1` (centres unmarked) [Compound 199, 5-hydroxy-N-(6-methyl-5-(7-(methylamino)-1,6-naphthyridin-3-yl)pyridin-3-yl)-5,6,7,8-tetrahydronaphthalene-1-carboxamide], for which the concentration for 50% growth inhibition (GI50) was at least 500 nM.
`CNc1ncc2cc(-c3cc(NC(=O)c4ccnc(C5(F)CC5)c4)ccc3C)cnc2c1C#N` [Compound 271, N-[3-[8-cyano-7-(methylamino)-1,6-naphthyridin-3-yl]-4-methyl-phenyl]-2-(1-fluorocyclopropyl)pyridine-4-carboxamide] displayed a GI50 of 20 to 100 nM.
In turn, `CNc1cc2ncc(-c3cc(NC(=O)c4cccc5c4CCC5O)cnc3C)cc2cn1` (centres unmarked) [Compound 219, 1-hydroxy-N-(6-methyl-5-(7-(methylamino)-1,6-naphthyridin-3-yl)pyridin-3-yl)-2,3-dihydro-1H-indene-4-carboxamide] gave a GI50 of at least 500 nM.
With `CNc1cc2ncc(-c3cc(NC(=O)c4cnn(CC(F)(F)F)c4C)cnc3C)cc2cn1` [Compound 240, 5-methyl-N-(6-methyl-5-(7-(methylamino)-1,6-naphthyridin-3-yl)pyridin-3-yl)-1-(2,2,2-trifluoroethyl)-1H-pyrazole-4-carboxamide], the concentration for 50% growth inhibition (GI50) is at least 500 nM.
The compound `CNc1cc2ncc(-c3cc(NC(=O)c4cnc5n4CCCC5C)ccc3C)cc2cn1` (centres unmarked) [Compound 214, 8-methyl-N-(4-methyl-3-(7-(methylamino)-1,6-naphthyridin-3-yl)phenyl)-5,6,7,8-tetrahydroimidazo[1,2-a]pyridine-3-carboxamide] yielded a 50% growth inhibitory concentration (GI50) of 20 to 100 nM.
Consider `CCC(C)c1ccnc(C(=O)Nc2cnc(C)c(-c3cnc4cc(NC)ncc4c3)c2)c1` (centres unmarked) [Compound 227, 4-(sec-butyl)-N-(6-methyl-5-(7-(methylamino)-1,6-naphthyridin-3-yl)pyridin-3-yl)picolinamide], for which the GI50 is 20 to 100 nM.
Same read-out and setting: the result for `CNc1cc2ncc(-c3cc(NC(=O)c4cc(C(NC)C(F)(F)F)ccn4)ccc3C)cc2cn1` (centres unmarked) [Compound 203, N-(4-methyl-3-(7-(methylamino)-1,6-naphthyridin-3-yl)phenyl)-4-(2,2,2-trifluoro-1-(methylamino)ethyl)picolinamide] reads below 20 nM.
Still for that read-out and setting: the result for `CNc1cc2ncc(-c3cc(NC(=O)c4cc(C(O)CC(F)(F)F)ccn4)cnc3C)cc2cn1` (centres unmarked) [Compound 242, N-(6-methyl-5-(7-(methylamino)-1,6-naphthyridin-3-yl)pyridin-3-yl)-4-(3,3,3-trifluoro-1-hydroxypropyl)picolinamide] reads 20 to 100 nM; that for `CNc1cc2ncc(-c3cc(NC(=O)c4ccnc(C(C)(C)C#N)c4)c(F)cc3C)cc2cn1` [Compound 217, 2-(2-cyanopropan-2-yl)-N-(2-fluoro-4-methyl-5-(7-(methylamino)-1,6-naphthyridin-3-yl)phenyl)isonicotinamide], 20 to 100 nM; that for `CNc1cc2c(C#N)cc(-c3cc(NC(=O)c4ccnc(C5(F)CC5)c4)ccc3C)cc2cn1` [Compound 272, N-(3-(5-cyano-3-(methylamino)isoquinolin-7-yl)-4-methylphenyl)-2-(1-fluorocyclopropyl)isonicotinamide], 20 to 100 nM.
